# Patent publication US20240251783A1, “COMPOSITIONS AND METHODS FOR LUNG PRESERVATION” (University Health Network, priority 2021, published 2024)
# What was measured:
# [1] = system: Human lung epithelial (BEAS-2B) cells; assay: Cell culture model simulating hypothermic lung preservation and warm reperfusion; MTS cell viability and phase contrast morphology; format: cell-based; settings: 42 h CIT
# Method: (§1) Human lung epithelial (BEAS-2B) cells or human pulmonary microvascular endothelial cells (HPMEC) were cultured to confluence at 37° C., 5% CO2 in DMEM (Gibco; Waltham MA) with 10% of fetal bovine serum (FBS, Gibco), or in M199 medium (Thermo Scientific, Waltham MA) with 20% of FBS, respectively. After cells reached confluence, medium was replaced with different testing solutions, and cells were switched to a chamber at 4° C. with 50% O2 to simulate hypothermic lung preservation. After different periods of cold ischemic time (CIT), cells were switched back to DMEM+10% FBS or M199+20% FBS at 37° C. with 5% CO2 for 4 h to simulate reperfusion. Cell morphology was recorded with phase contrast microscopy.
# (§2) CellTiter 96® AQueous One Solution Cell Proliferation Assay (MTS) was used to determine effects of different solutions on cell viabilities. Cells were seeded in 96-well plates at 15,000 cells/100 μl/well, and incubated with serum containing culture medium as described above, at 37° C./5% CO2 overnight. After switching to different preservation solutions for various periods of CIT, and followed by 3 h simulated reperfusion, and then 20 μl of CellTiter 96@ AQueousOne Solution (Promega; Madison, WI) was added to each well. After additional 1 h incubation, optical density of each well was measured using a plate reader (Biotek Instrument Inc., Winooski, VT) set to 490 nm.
# [2] = system: human pulmonary microvascular endothelial cells (HPMEC); assay: Cell culture model simulating hypothermic lung preservation and warm reperfusion; MTS cell viability; format: cell-based; settings: 42 h CIT
# Method: as §1, §2
substance,measurement,setting,value
dextran 40,effect of addition of dextran 40 on cell viability,[1]; 50 mg/ml added to M199(p),further significantly improved cell viability
same,effect of addition of dextran 40 on cell viability,[1]; 50 mg/ml added to RPMI-1640(p),not further enhanced
same,effect of addition of dextran 40 on cell viability,[2]; 50 mg/ml added to M199(p),further significantly improved cell viability
same,effect of addition of dextran 40 on cell viability,[2]; 50 mg/ml added to RPMI-1640(p),not further enhanced
